Measured values: patent publication US20160309708A1, “POLYCARBOXYLIC ACID ESTER ALKYL DERIVED FROM BRANCHED AND STRAIGHT ALCOHOL OF PLANT ORIGIN, AND USE OF AN ALKYL ESTER IN AGROCHEMICAL FORMULATIONS” (priority 2013, published 2016)

Assay: Solubility limit of active ingredients in the alkyl esters of polycarboxylic acids at 25° C.
Assay type: physicochemical
Conditions: under agitation, solvent: alkyl esters of polycarboxylic acids

Compound | solubility limit in alkyl esters of polycarboxylic acids of this invention
Cc1c(COC(=O)[C@@H]2[C@H](/C=C(\Cl)C(F)(F)F)C2(C)C)cccc1-c1ccccc1 (racemic) [BIFENTRIN, Bifenthrin] | 702 GRAMS PER LITER
CCOP(=S)(OCC)Oc1nc(Cl)c(Cl)cc1Cl [CHLORPYRIFOS, Chlorpyrifos] | 900 GRAMS PER LITER
CCCC1COC(Cn2cncn2)(c2ccc(Cl)cc2Cl)O1 (centres unmarked) [PROPICONAZOLE, Propiconazole] | 1568 GRAMS PER LITER
CC(C)(C)C(O)(CCc1ccc(Cl)cc1)Cn1cncn1 (centres unmarked) [TEBUCONAZOLE, Tebuconazole] | 240 GRAMS PER LITER
Abamectin | 116 GRAMS PER LITER
